Source: ChEMBL document CHEMBL3044730, “Synthesis, antimycobacterial, antiviral, antimicrobial activities, and QSAR studies of nicotinic acid benzylidene hydrazide derivatives” (Med Chem Res, 2012)
Converted amounts (≈) assume the structure as drawn.

Experiments:
[1] = Cytotoxicity against Chlorocebus aethiops (African green monkey) Vero cells assessed as alteration in cell morphology by microscopy; type: cell-based; settings: chlorocebus sabaeus
[2] = tested on: Punta Toro virus; assay: Antiviral activity against Punta Toro virus infected Vero cells assessed as inhibition of virus-induced cytopathicity; type: functional, organism-based
[3] = tested on: Coxsackievirus B4; assay: Antiviral activity against Human coxsackievirus B4 infected Vero cells assessed as inhibition of virus-induced cytopathicity; type: functional, organism-based; settings: Enterovirus B
[4] = tested on: Sindbis virus; assay: Antiviral activity against Sindbis virus infected Vero cells assessed as inhibition of virus-induced cytopathicity; type: functional, organism-based
[5] = tested on: Mammalian orthoreovirus 1; assay: Antiviral activity against Mammalian orthoreovirus 1 infected Vero cells assessed as inhibition of virus-induced cytopathicity by microscopy; type: functional, organism-based; settings: Mammalian orthoreovirus 1, Vero
[6] = tested on: Human respirovirus 3; assay: Antiviral activity against Human parainfluenza virus 3 infected Vero cells assessed as inhibition of virus-induced cytopathicity by microscopy; type: functional, organism-based; settings: Human respirovirus 3, Vero
[7] = Cytotoxicity against Homo sapiens (human) HeLa cells assessed as alteration in cell morphology by microscopy; type: cell-based
[8] = tested on: Respiratory syncytial virus; assay: Antiviral activity against Respiratory syncytial virus infected human HeLa cells assessed as inhibition of virus-induced cytopathicity by microscopy; type: functional, organism-based
[9] = tested on: Coxsackievirus B4; assay: Antiviral activity against Human coxsackievirus B4 infected human HeLa cells assessed as inhibition of virus-induced cytopathicity by microscopy; type: functional, organism-based; settings: Enterovirus B
[10] = tested on: Vesicular stomatitis virus; assay: Antiviral activity against Vesicular stomatitis virus infected human HeLa cells assessed as inhibition of virus-induced cytopathicity by microscopy; type: functional, organism-based
[11] = Cytotoxicity against Homo sapiens (human) HEL cells assessed as alteration in cell morphology by microscopy; type: cell-based
[12] = tested on: Human herpesvirus 3 strain Oka vaccine; assay: Antiviral activity against Human herpesvirus 3 strain Oka vaccine OKA 07-1 (Varicella zoster virus) infected in human HEL cells assessed as inhibition of virus-induced cytopathicity; type: functional, organism-based; settings: Human alphaherpesvirus 3, OKA 07-1, HEL
[13] = tested on: Human herpesvirus 5 strain AD169; assay: Antiviral activity against Human herpesvirus 5 strain AD169 Davis infected human HEL cells assessed as inhibition of virus-induced cytopathicity by microscopy; type: functional, organism-based; settings: Human betaherpesvirus 5, Davis
[14] = tested on: Human alphaherpesvirus 1; assay: Antiviral activity against TK(-) aciclovir-resistant Human herpesvirus 1 strain KOS infected in human HEL cells assessed as inhibition of virus-induced cytopathicity; type: functional, organism-based; settings: Human alphaherpesvirus 1, KOS
[15] = tested on: Human alphaherpesvirus 2; assay: Antiviral activity against Human herpesvirus 2 strain G infected human HEL cells assessed as inhibition of virus-induced cytopathicity by microscopy; type: functional, organism-based; settings: Human alphaherpesvirus 2, strain G
[16] = tested on: Vaccinia virus; assay: Antiviral activity against Vaccinia virus infected human HEL cells assessed as inhibition of virus-induced cytopathicity by microscopy; type: functional, organism-based; settings: Orthopoxvirus vaccinia
[17] = Cytotoxicity against Homo sapiens (human) MT4 cells after 4 days by MTT assay; type: cell-based
[18] = tested on: Human alphaherpesvirus 1; assay: Antiviral activity against Human herpesvirus 1 strain KOS infected in human HEL cells assessed as inhibition of virus-induced cytopathicity by microscopy by microscopy; type: functional, organism-based; settings: Human alphaherpesvirus 1, KOS
[19] = tested on: Human immunodeficiency virus 2; assay: Antiviral activity against Human immunodeficiency virus type 2 (ISOLATE ROD) infected MT4 cells assessed as inhibition of virus-induced cytopathic effect after 4 days by MTT assay; type: functional, organism-based; settings: Human immunodeficiency virus 2, ISOLATE ROD, MT4, 96 h
[20] = tested on: Human immunodeficiency virus 1; assay: Antiviral activity against Human immunodeficiency virus 1 IIIB infected MT4 cells assessed as inhibition of virus-induced cytopathic effect after 4 days by MTT assay; type: functional, organism-based; settings: MT4, 96 h
[21] = tested on: Candida albicans; assay: Antimicrobial activity against Candida albicans after 2 days by serial dilution method; type: functional; set-up: unit not given here
[22] = tested on: Candida albicans; assay: Antimicrobial activity against Candida albicans after 7 days by serial dilution method; type: functional; set-up: unit not given here
[23] = tested on: Escherichia coli; assay: Antimicrobial activity against Escherichia coli after 24 hr by serial dilution method; type: functional; set-up: unit not given here
[24] = tested on: Staphylococcus aureus; assay: Antimicrobial activity against Staphylococcus aureus after 24 hr by serial dilution method; type: functional; set-up: unit not given here
[25] = tested on: Bacillus subtilis; assay: Antimicrobial activity against Bacillus subtilis after 24 hr by serial dilution method; type: functional; set-up: unit not given here
[26] = tested on: Mycobacterium tuberculosis; assay: Antimicrobial activity against Mycobacterium tuberculosis by agar dilution method; type: functional

## O=C(N/N=C/c1ccc(O)cc1)c1cccnc1
[1]
  MCC: > 100 µg/mL
[2]
  EC50: > 100 µg/mL
[3]
  EC50: > 100 µg/mL
[4]
  EC50: > 100 µg/mL
[5]
  EC50: > 100 µg/mL
[6]
  EC50: > 100 µg/mL
[7]
  MCC: > 100 µg/mL
[8]
  EC50: > 100 µg/mL
[9]
  EC50: > 100 µg/mL
[10]
  EC50: > 100 µg/mL
[11]
  CC50: 91 µg/mL (≈ 377 µM)
  MCC: > 100 µg/mL
[12]
  EC50: 54 µg/mL (≈ 224 µM)
[13]
  EC50: > 100 µg/mL
[14]
  EC50: > 100 µg/mL
[15]
  EC50: > 100 µg/mL
[16]
  EC50: > 100 µg/mL
[17]
  CC50 at 96 h: 104 µg/mL (≈ 431 µM)
[18]
  EC50: > 100 µg/mL
[19]
  EC50: > 104 µg/mL
[20]
  EC50: > 104 µg/mL
[21]
  -logMIC: 1.28
[22]
  -logMIC: 1.59
[23]
  -logMIC: 1.29
[24]
  -logMIC: 1.29
[25]
  -logMIC: 1.29
[26]
  MIC: > 25 µg/mL

## O=C(O)c1cn(C2CC2)c2cc(N3CCNCC3)c(F)cc2c1=O [CIPROFLOXACIN]
[26]
  MIC: 3.13 µg/mL (≈ 9.45 µM)

## CC[C@@H](CO)NCCN[C@@H](CC)CO [ETHAMBUTOL]
[26]
  MIC: 1.56 µg/mL (≈ 7.64 µM)

## OC(Cn1cncn1)(Cn1cncn1)c1ccc(F)cc1F [FLUCONAZOLE]
[21]
  -logMIC: 2.64
[22]
  -logMIC: 2.64

## NNC(=O)c1ccncc1 [ISONIAZID]
[26]
  MIC: 0.1 µg/mL (≈ 0.729 µM)

## Cc1ccnc2c1NC(=O)c1cccnc1N2C1CC1 [NEVIRAPINE]
[17]
  CC50 at 96 h: > 4 µg/mL
[19]
  EC50: 4 µg/mL (≈ 15 µM)
[20]
  EC50: 0.05 µg/mL (≈ 0.188 µM)

## NNC(=O)c1cccnc1 [NICOTINIC ACID HYDRAZIDE]
[21]
  -logMIC: 1.04
[22]
  -logMIC: 1.04
[23]
  -logMIC: 0.74
[24]
  -logMIC: 0.74
[25]
  -logMIC: 1.04

## CCn1cc(C(=O)O)c(=O)c2cc(F)c(N3CCNCC3)cc21 [NORFLOXACIN]
[23]
  -logMIC: 2.61
[24]
  -logMIC: 2.61
[25]
  -logMIC: 2.61

## Cc1cn([C@H]2C[C@H](N=[N+]=[N-])[C@@H](CO)O2)c(=O)[nH]c1=O [ZIDOVUDINE]
[17]
  CC50 at 96 h: > 2.5 µg/mL
[19]
  EC50: 0.0009 µg/mL (≈ 0.00337 µM)
